Assay results reported in patent US20050255493A1, “Molecular targeting of the IGF-1 receptor” (priority 2002, published 2005).

Key:
IGF1R mRNA = test: Oligonucleotide scanning array hybridisation with labelled transcript; format: binding, human; conditions: for Hybridisation to IGF1R mRNA on scanning array: 37° C. (and 23° C.); for Rel hyb intensity: relative to the most strongly hybridising sequence on the array; for Hyb intensity: scanning array probed with labelled IGF1R mRNA
Experimental: Scanning arrays complementary to the region of the IGF1R mRNA from position 537-685 were prepared using the standard techniques described in Southern E. M. et al., Nucleic Acids Res., 1994, 22(8): 1368-1373; and Sohail, M. and Southern, E. M. “Using oligonucleotide scanning arrays to find effective antisense reagents”, Methods in Molecular Biology, vol. 170: DNA Arrays: Methods and Protocols, Ed J. B. Rampal, Humana Press Inc., Totowa, N.J.
The scanning arrays comprise sets of oligonucleotides of various lengths. A series of oligonucleotides, complementary to the target mRNA, is made by sequential coupling of nucleotides to a solid surface. The DNA synthesis reagents are applied to a confined area on the surface of the solid support using a mask. The mask is shifted along the surface after each round of coupling, resulting in a series of oligonucleotides each complementary to a region of the target sequence.
• 2. Remove 1 μL for quantitation (see below). • 3. Remove unincorporated label by Sephadex® G25 column chromatography (see Note 11). • 4. Save 1 μL of the purified transcript for quantitation (see below). • 5. Check the integrity of the transcript by denaturing polyacrylamide gel electrophoresis (10). • 6. Add 10 μL of the scintillation fluid to the samples saved in Steps 2 and 4. • 7. Mix by vortexing and count the samples in a scintillation counter for 1 min. • 8. Calculate the percent incorporation: [formula] • 9. Calculate the amount of RNA made: [formula] Hybridisation to Arrays Made on Polypropylene • 1. Place the array in the hybridisation tube, coiling it in a spiral. • 2. Dilute the radiolabelled transcript in an appropriate volume (10-20 mL depending upon the size of the array and the hybridisation tube) of hybridisation buffer. The mix should cover the array along the length of the tube. • 3. Place items 1 and 2 in the oven at desired temperature for 30 min. Also put approximately 100 mL of the hybridisation buffer in the oven: this is to be used to wash the array at the end of hybridisation. • 4. Pour the hybridisation mix into the tube containing the array and hybridise for 3-4 h. • 5. Remove the hybridisation mix. Briefly wash the array with the hybridisation buffer from Step 3, air dry, cover with cling film and expose to a storage phosphor screen for 16-20 h (see Note 12). • 6. Scan the screen on PhosphorImager or STORM and analyse the image using xvseq (see below). Hybridisation to Arrays Made on Glass • 1. Clean the non-array glass plate with acetone and ethanol to ensure it is grease-free and siliconise it by treatment with dimethyl dichlorosilane solution and place it in lidded box. Also place moist paper towel in the box. • 2. Dilute the radiolabelled transcript in an appropriate volume of the hybridisation buffer (for example, for an array of 250 mm×50 mm use 500-750 μL). • 3. Place items 1 and 2 in an incubator at desired temprature for 30 min. Also put approximately 100 mL of the hybridisation buffer in the oven: this is to be used to wash the array at the end of hybridisation. • 4. Using a micropipette, pipette the hybridisation mix in a line evenly along the length of the non-array glass plate, avoiding formation of air bubbles. • 5. Starting at one end, carefully place the scanning array (face down) on top of the hybridisation mix. The mix will spread out and form a thin film between the two plates. Incubate for 3-4 h. • 6. Separate the plates from each other and wash the array plate with hybridisation buffer to remove unbound mix. Drain the plate, air dry, cover with cling film and expose to a storage phosphor screen for 16-20 h. • 7. Scan the screen on PhosphorImager or STORM and analyse the image using xvseq (see below). Alternative Hybridisation Protocol for Glass or Polypropylene • 1. Assemble with clips the array plate (or polypropylene array pasted with PhotoMount™ on a glass plate) and the non-array plate, using rubber tubing as spacers on two sides. • 2. […]

IR = IR level by immunoblotting in transfected MDA-231 cells; format: cell-based, human; conditions: for IR Protein Level (% control): 48 hr, vs scrambled control; for IR downregulation: TSS ASO at 300 nM; for Selectivity for IGF1R mRNA versus IR mRNA: compared with TSS ASO
Experimental: (§1) The human and murine cell lines used in this study were cultured in RPMI 1640 plus 10% FCS at 37° C. in a humidified atmosphere of 5% CO2. The cultures were negative when tested for Mycoplasma infection. Cultures were passaged the day before transfection to achieve 30-50% confluence the following day. Initial transfections of ASOs used 1-2.5 μg/ml Cytofectin (Glen Research, Sterling, Va.), according to the manufacturer's instructions. Latterly Oligofectamine (Life Sciences) has been used for all ASO and RNAi transfections. The method was as described (see manufacturer's instructions and www.dharmacon.com) with minor modifications. For transfection of monolayers seeded in 6 well plates, 5 μl phosphorothioate oligonucleotide or RNA duplex at 100× final concentration were mixed with 2501 serum-free Optimem (Gibco-BRL). In a separate tube 2 μl Oligofectamine was mixed with 68 μl Optimem. After 10 min incubation at room temperature the contents of the two tubes were mixed and incubated for a further 25 min at room temperature. Monolayers were washed with 1-2 ml Optimem. To the cells were added 175 μl Optimem followed by the 325 μl complexes. Volumes were scaled up by factors of 2.22 or 6.05 for transfection in 60 mm or 100 mm dishes respectively. Cultures were incubated at 37° C. for 4 hr, and then 50 μl FCS and 3.5 ml RPMI plus 5% FCS were added to each well. After 48 hr incubation effects on IGF1R and IR expression were determined by immunoblotting. Some transfected cultures were serum-starved overnight, divided into two aliquots and treated with 10 nM Long R3-IGF-I (GroPep, Adelaide) or diluent for 30 min at 37° C. prior to lysis.
(§2) IGF1R expression was assessed by immunoblotting as previously described (Macaulay et al 2001). After washing in ice-cold PBS, cells were lysed in 50 mM Hepes pH 7.5, 100 mM NaCl, 10 mM EDTA, 1% Triton-X-100, 4 mM sodium pyrophosphate, 2 mM sodium orthovanadate, 10 mM sodium fluoride, 1 mM PMSF, 2 μg/ml each leupeptin and aprotinin. Lysates were centrifuged for 15 minutes at 14,000 g, the protein concentration of supernatants was measured using BCA assay reagent (Pierce), and equivalent amounts of protein were separated on 7.5% SDS-PAGE gels and transferred to nitrocellulose. Target protein levels were assessed using antibodies to the β-subunit of the IGF1R or IR (Santa Cruz), phospho-Ser 473 Akt or total Akt (Cell Signalling, New England Biolabs) or β-tubulin (Sigma). Activated IGF1R was detected by immunoprecipitation for phosphotyrosine (P-Tyr-100, Cell Signaling Technology). Primary antibodies were detected with HRP-conjugated secondary antibodies (Dako), and ECL Plus (Amersham Pharmacia).
(§3) The ASOs and RNAi duplexes were transfected into MDA-231 cells (human ER negative breast cancer) using Cytofectin or Oligofectamine, as described above. After 48 hr the cells were lysed, and IGF1R and IR levels were measured by immunoblotting. The intensity of the autoradiographic bands was quantified by densitometry, and IGF1R (or IR) levels were corrected for loading differences. The specific IGF1R or IR results are presented as % IGF1R (or IR) level of that in cells transfected with the same concentration of an appropriate control. This was a scrambled control oligonucleotide for ASOs, and an inverted RNA duplex for RNAi.

MDA-MB-231 cells = test: Clonogenic survival and post-irradiation survival (SF2) of transfected MDA-MB-231 cells; format: cell-based, human; conditions: MDA-MB-231, 100 nM
Experimental: FIG. 7 A) MDA-MB-231 cells transfected with 100 nM RNA duplexes were serum-starved overnight and treated with 50 nM IGF-I for 30 min. […] Results represent mean±sem of colony counts in triplicate dishes. Similar results were obtained in two further clonogenic assays. • C) Clonogenic survival of transfected MDA-MB-231 cells that were unirradiated or irradiated at 2Gy. The fraction surviving 2Gy irradiation (SF2) is shown as mean±sem of three independent assays.
The effect of transfection with 100 nM ASO4 or siRNA duplexes R4 and R5, equivalent to strongly and weakly hybridizing ASOs respectively, on colony forming efficiency and post-irradiation survival was also evaluated. […] This in turn illustrates the utility of hybridisation to the scanning ASO array in the selection of siRNA reagents, since relative hybridisation to the array is found to be predictive of activity in RNA interference and biological efficacy.

IGF1R = IGF1R level by immunoblotting in transfected MDA-231 cells; format: cell-based, human; conditions: for IGF1R Protein Level (% control): MDA-231 cells, 48 hr, vs scrambled control
Experimental: as §1, §2, §3

Substance | Hybridisation to IGF1R mRNA on scanning array (IGF1R mRNA) | Rel hyb intensity (IGF1R mRNA) | Hyb intensity (IGF1R mRNA) | IR Protein Level (% control) (IR; 30 nM ASO) | IR Protein Level (% control) (IR; 300 nM ASO) | IR downregulation (IR) | Selectivity for IGF1R mRNA versus IR mRNA (IR) | Survival after 2Gy irradiation (SF2) (MDA-MB-231 cells; 2Gy) | Clonogenic survival (MDA-MB-231 cells; unirradiated) | IGF1R Protein Level (% control) (IGF1R; 30 nM ASO) | IGF1R Protein Level (% control) (IGF1R; 300 nM ASO) | IGF1R downregulation compared between 21mer duplexes (IGF1R; MDA-231 cells, 0.5, 5 and 50 nm (FIG. 5))
ASO4: phosphorothioate antisense oligonucleotide GCGGTAGTTGTACTCATTGT, SEQ ID NO:13 (DNA, all phosphorothioate, methylation of C not given here) | hybridised strongly | >0.59 | >33,162 | 97 | 92 | did not cause significant downregulation of IR | greater selectivity for IGF1R mRNA versus IR mRNA | entirely non-specific | entirely non-specific | 73 ± 2 | 49 ± 2 | –
ASO1 (20mer): phosphorothioate antisense oligonucleotide CGGCTTCTCCTCCATGGTCC, SEQ ID NO:2 (DNA, all phosphorothioate, methylation of C not given here) | hybridised strongly | – | – | 112 | 135 | did not cause significant downregulation of IR | greater selectivity for IGF1R mRNA versus IR mRNA | – | – | 66 ± 23 | 38 ± 6 | –
ASO3: phosphorothioate antisense oligonucleotide ATTGTTGATGGTGGTCTTCT, SEQ ID NO:11 (DNA, all phosphorothioate, methylation of C not given here) | hybridises only at 23 °C | >0.13 | >7048 | – | – | – | – | – | – | 105 ± 18 | 104 ± 22 | –
15mer: 15mer sequence described by Wraight et al. which falls within the region 537-685, gtgcagcagcggtag (DNA GTGCAGCAGCGGTAG; further chemistry not given here) [reference compound] | – | 0.03 | 1695 | – | – | – | – | – | – | – | – | –
Mut2: R2 duplex with single base pair mutation GCCGAUGUGUGUGAAGACCTT / TTCGGCUACACACACUUCUGG, SEQ ID NO:28 (sense GCCGAUGUGUGUGAAGACCNN; chemistry not fully specified; one strand is listed 3' to 5') | – | – | – | – | – | – | – | – | – | – | – | partially, though not completely, blocked
ASO5: phosphorothioate antisense oligonucleotide GTGGTCCAGCAGCGGTAGTT, SEQ ID NO:15 (DNA, all phosphorothioate, methylation of C not given here) | hybridised strongly | >0.07 | >4150 | – | – | – | – | – | – | – | – | –
ASO2 (20mer): phosphorothioate antisense oligonucleotide TGGTCTTCTCACACATCGGC, SEQ ID NO:7 (DNA, all phosphorothioate, methylation of C not given here) | hybridised strongly | – | – | – | – | – | – | – | – | 84 ± 11 | 47 ± 5 | –
